# Measured values taken from ChEMBL document CHEMBL4842322, “A naphthalimide-polyamine conjugate preferentially accumulates in hepatic carcinoma metastases as a lysosome-targeted antimetastatic agent” (Eur J Med Chem, 2021).
# Tests used:
# Format in all cases: functional, cell-based
# Huh-7 = assay: Cytotoxicity against human Huh-7 cells assessed as inhibition of cell growth incubated for 48 hrs by MTT assay; details: Huh-7, 48 h
# HepG2 = assay: Cytotoxicity against human HepG2 cells assessed as inhibition of cell growth incubated for 48 hrs by MTT assay; details: HepG2, 48 h
# MDA-MB-231 = assay: Cytotoxicity against human MDA-MB-231 cells assessed as inhibition of cell growth incubated for 48 hrs by MTT assay; details: MDA-MB-231, 48 h
# A549 [1] = assay: Cytotoxicity against cisplatin-resistant human A549 cells assessed as inhibition of cell growth incubated for 48 hrs by MTT assay; details: A549, 48 h
# A549 [2] = assay: Cytotoxicity against human A549 cells assessed as inhibition of cell growth incubated for 48 hrs by MTT assay; details: A549, 48 h
# MCF7 = assay: Cytotoxicity against human MCF7 cells assessed as inhibition of cell growth incubated for 48 hrs by MTT assay; details: MCF7, 48 h
SMILES,IC50 (Huh-7),IC50 (HepG2),IC50 (MDA-MB-231),IC50 (A549 [1]),IC50 (A549 [2]),IC50 (MCF7)
CCCNCCCNCCCN1C(=O)c2cccc3cc(NC(=O)CN)cc(c23)C1=O,7.54 µM,> 30 µM,> 30 µM,> 30 µM,> 30 µM,> 30 µM
CCCNCCCN1C(=O)c2cccc3cc(NC(=O)CN)cc(c23)C1=O,10.1 µM,> 30 µM,> 30 µM,> 30 µM,> 30 µM,> 30 µM
CCCNCCCNCCCNCCCN1C(=O)c2cccc3c(NC(=O)CN)ccc(c23)C1=O,5.39 µM,> 30 µM,> 30 µM,> 30 µM,> 30 µM,> 30 µM
CN(C)CCN1C(=O)c2cccc3cc(NC(=O)CN)cc(c23)C1=O,12.7 µM,> 30 µM,> 30 µM,> 30 µM,> 30 µM,> 30 µM
NCCCCNCCCCN1C(=O)c2cccc3cc(NC(=O)CN)cc(c23)C1=O,28.7 µM,> 30 µM,> 30 µM,> 30 µM,> 30 µM,> 30 µM
